Data: patent US10561624B2, “Methods and materials for the treatment of testosterone deficiency in men” (REPROS THERAPEUTICS INC., priority 2001, dated 2020)
Several values for one entry are separate records, joined by “and”; a condition that tells them apart may be missing. Equal entries are not always repeated. Entries after “also recorded” stand apart in the source; their conditions may differ. Structures can show the parent of a compound that is named as a salt. Each block holds one molecule with its values, some of them ahead of it.

Tests used:
Adult, male, Baboons [1] = assay: Effects on body weight and serum LH, FSH, PRL in male baboons; assay type: in vivo; details: during the study
Source text: (§1) The samples analyzed were sera taken on the day of first treatment before being given test article (day 0), after 12 days of treatment (day 12) and 7 days after the last treatment (end or wash-out).

Adult, male, Baboons [2] = assay: Effects on clinical chemistry parameters in male baboons; assay type: in vivo; details: for serum glucose: changes within the normal range; for anionic gap: day 12 of treatment and 7 days after treatment (washout); for Alkaline phosphatase (ALP): following treatment; for serum cholesterol: not statistically significant, within the normal range
Source text: as §1

[3] = Ernst et al.; cited from earlier work
Adult, male, Baboons [4] = assay: Effects of Clomids on serum testosterone in male baboons; details: for effect on total serum testosterone / Serum Testosterone Levels, 12 days: 1.5 mg/kg for 12 consecutive days; for effect on total serum testosterone: male baboons; for Serum Testosterone Levels, 6 days, mean / Serum Testosterone Levels, 12 days, mean / Serum Testosterone Levels, wash-out, mean / Serum Testosterone Levels, baseline, mean / Serum Testosterone Levels, 0 day, mean: group mean of 3 baboons; for Serum Testosterone Levels, 6 days, mean / Serum Testosterone Levels, 6 days: 1.5 mg/kg daily, day 6; for Serum Testosterone Levels, 12 days, mean: 1.5 mg/kg for 12 days; for Serum Testosterone Levels, 12 days, mean / Serum Testosterone Levels, 12 days: day 12; for Serum Testosterone Levels, wash-out, mean / Serum Testosterone Levels, wash-out: 7 days after the last treatment; for Serum Testosterone Levels, baseline, mean: before treatment; for Serum Testosterone Levels, 0 day, mean / Serum Testosterone Levels, 0 day: day 0, before first dose; for Serum Testosterone Levels, 6 days / Serum Testosterone Levels, 12 days / Serum Testosterone Levels, wash-out / Serum Testosterone Levels, baseline / Serum Testosterone Levels, 0 day: individual baboon; for Serum Testosterone Levels, 6 days / Serum Testosterone Levels, 12 days: 1.5 mg/kg; for Serum Testosterone Levels, baseline: baseline Dec. 3, 2001, before treatment
Source text: as §1

men = details: cited from earlier work
[5] = cited from earlier work

Compound: CCN(CC)CCOc1ccc(/C(=C(\Cl)c2ccccc2)c2ccccc2)cc1 [Enclomid, trans-clomiphene]
serum prolactin (PRL) (Adult, male, Baboons [1]): decrease
platelets (Adult, male, Baboons [2]; 12-day treatment, values stayed within the normal range): clear effect
serum creatinine (Adult, male, Baboons [2]; between day 0 and Day 12): no differences
serum glucose (Adult, male, Baboons [2]): no increases with treatment
anionic gap (Adult, male, Baboons [2]): raised this parameter towards normal values
Alkaline phosphatase (ALP) (Adult, male, Baboons [2]): decreased in value
counts of lymphocytes and eosinophiles (Adult, male, Baboons [2]; in vivo): raising the counts
red blood cell population (Adult, male, Baboons [2]; in vivo): substantive effects
count and percent lymphocytes (Adult, male, Baboons [2]; mean percent remains in the normal range): increase
serum cholesterol (Adult, male, Baboons [2]): tended to decrease
percent of granulocytes in the blood (Adult, male, Baboons [2]; very strong after the 7-day washout, below the normal range): strong effect
estrogenic / antiestrogenic activity [3]: antiestrogenic
effect on total serum testosterone (Adult, male, Baboons [4]): significant increases in total serum testosterone; also recorded: more effective than Clomid or Zuclomid
change of total serum testosterone after cessation of treatment (Adult, male, Baboons [4]; between day 12 and day 18 (washout)): significant drop
total serum testosterone on days 6 and 12 compared with baseline or day 0 (FIG. 3 time course) (Adult, male, Baboons [4]; days 6 and 12 vs baseline or day 0): significantly and statistically raised total serum testosterone
Serum Testosterone Levels, 6 days, mean (Adult, male, Baboons [4]): 1144.4 ng/dL
Serum Testosterone Levels, 12 days, mean (Adult, male, Baboons [4]): 1088.5 ng/dL
Serum Testosterone Levels, wash-out, mean (Adult, male, Baboons [4]): 325.8 ng/dL
Serum Testosterone Levels, baseline, mean (Adult, male, Baboons [4]): 134.0 ng/dL
Serum Testosterone Levels, 0 day, mean (Adult, male, Baboons [4]): 105.0 ng/dL
Serum Testosterone Levels, 6 days (Adult, male, Baboons [4]): 1223.8 ng/dL and 1128.2 ng/dL and 1081.1 ng/dL
Serum Testosterone Levels, 12 days (Adult, male, Baboons [4]): 633.6 ng/dL and 1466 ng/dL and 1166 ng/dL
Serum Testosterone Levels, wash-out (Adult, male, Baboons [4]): 307.2 ng/dL and 399.2 ng/dL and 271 ng/dL
Serum Testosterone Levels, baseline (Adult, male, Baboons [4]): 64.57 ng/dL and 166.86 ng/dL and 170.45 ng/dL
Serum Testosterone Levels, 0 day (Adult, male, Baboons [4]): 74.96 ng/dL and 133.59 ng/dL and 106.47 ng/dL
clearance from the circulation (Adult, male, Baboons [4]; inferred from testosterone drop after cessation): readily cleared from the circulation

serum glucose (Adult, male, Baboons [2]): increase
anionic gap (Adult, male, Baboons [2]): lower values than the Enclomid group
Compound: CCN(CC)CCOc1ccc(C(=C(Cl)c2ccccc2)c2ccccc2)cc1 [Clomid, clomiphene citrate]
LH, FSH, and testosterone after 2 months (men; Guay et al. 1995, 2 months): increase in LH, FSH, and testosterone
erectile dysfunction (men; Guay et al. 1995, 2 months): no effects on erectile dysfunction
FSH, LH in young and old men (men; Tenover et al. 1987): increased in FSH, LH
free and total testosterone in men (men; Tenover et al. 1987): increases in free and total testosterone
semen quality or fertility (men; WHO study, 6 months of treatment): no changes in semen quality or fertility
side effects (men; approved cis/trans mixture): blurred vision, abdominal discomfort, gynecomastia, testicular tumors, vasomotor flushes, nausea, and headaches
genotoxicity and tumor enhancement (men; other studies): genotoxic and tumor enhancement effects
variability of total testosterone levels (coefficients of variations) (Adult, male, Baboons [4]; day 6 and later, compared to animals receiving Enclomid): more variable total testosterone levels
Serum Testosterone Levels, 6 days, mean (Adult, male, Baboons [4]): 559.3 ng/dL
Serum Testosterone Levels, 12 days, mean (Adult, male, Baboons [4]): 588.7 ng/dL
Serum Testosterone Levels, wash-out, mean (Adult, male, Baboons [4]): 203.6 ng/dL
Serum Testosterone Levels, baseline, mean (Adult, male, Baboons [4]): 111.5 ng/dL
Serum Testosterone Levels, 0 day, mean (Adult, male, Baboons [4]): 161.4 ng/dL
Serum Testosterone Levels, 6 days (Adult, male, Baboons [4]; listed as CLO): 940.97 ng/dL and 585.92 ng/dL and 151.12 ng/dL
Serum Testosterone Levels, 12 days (Adult, male, Baboons [4]; listed as CLO): 891.5 ng/dL and 555.6 ng/dL and 318.9 ng/dL
Serum Testosterone Levels, wash-out (Adult, male, Baboons [4]; listed as CLO): 150.9 ng/dL and 316.3 ng/dL and 143.6 ng/dL
Serum Testosterone Levels, baseline (Adult, male, Baboons [4]; listed as CLO): 79.01 ng/dL and 97.55 ng/dL and 158.06 ng/dL
Serum Testosterone Levels, 0 day (Adult, male, Baboons [4]; listed as CLO): 76.15 ng/dL and 305.24 ng/dL and 102.94 ng/dL

Compound: CCN(CC)CCOc1ccc(/C(=C(/Cl)c2ccccc2)c2ccccc2)cc1 [Zuclomid, cis-clomiphene]
serum glucose (Adult, male, Baboons [2]): increase
anionic gap (Adult, male, Baboons [2]): lower values than the Enclomid group
Alkaline phosphatase (ALP) (Adult, male, Baboons [2]): not elevated
AST (Adult, male, Baboons [2]; in vivo): lowering
hematocrit (Adult, male, Baboons [2]; in vivo): substantive effects
red blood cell population (Adult, male, Baboons [2]; in vivo): substantive effects
serum cholesterol (Adult, male, Baboons [2]): tended to increase
estrogenic / antiestrogenic activity [3]: more potent and more estrogenic
half-life ([5]; relative to the other isomer in Clomid): longer half-life
residual blood levels following a single dose ([5]; reported in literature): in excess of one month
effect on total serum testosterone (Adult, male, Baboons [4]): did not raise total serum testosterone to any extent; also recorded: not effective
Serum Testosterone Levels, 6 days, mean (Adult, male, Baboons [4]): 178.5 ng/dL
Serum Testosterone Levels, 12 days, mean (Adult, male, Baboons [4]): 357.9 ng/dL
Serum Testosterone Levels, wash-out, mean (Adult, male, Baboons [4]): 498.1 ng/dL
Serum Testosterone Levels, baseline, mean (Adult, male, Baboons [4]): 170.6 ng/dL
Serum Testosterone Levels, 0 day, mean (Adult, male, Baboons [4]): 394.2 ng/dL
Serum Testosterone Levels, 6 days (Adult, male, Baboons [4]): 137.51 ng/dL and 169.98 ng/dL and 227.95 ng/dL
Serum Testosterone Levels, 12 days (Adult, male, Baboons [4]): 314.5 ng/dL and 406.1 ng/dL and 353.0 ng/dL
Serum Testosterone Levels, wash-out (Adult, male, Baboons [4]): 359.7 ng/dL and 860.5 ng/dL and 274.1 ng/dL
Serum Testosterone Levels, baseline (Adult, male, Baboons [4]): 124.84 ng/dL and 104.66 ng/dL and 282.29 ng/dL
Serum Testosterone Levels, 0 day (Adult, male, Baboons [4]): 210.4 ng/dL and 67.37 ng/dL and 904.82 ng/dL
